Data from patent US6737383B1, “Herbicidal oxadiazolidines” (priority 1999, dated 2004).

Assays:
crabgrass = experiment: Test B pre/postemergence crabgrass; type: in vivo, Digitaria sanguinalis
Method in brief: (§1)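 Test chemicals in a non-phytotoxic solvent mixture with surfactant were sprayed preemergence onto planted seeds and postemergence onto plants 2 to 18 cm tall (1- to 4-leaf stage). After twelve to sixteen days in a greenhouse, injury was visually rated against untreated controls from 0 (no effect) to 10 (complete control).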

wild oat = experiment: Test B pre/postemergence wild oat; type: in vivo, Avena fatua
Method in brief: as §1

surinam grass = experiment: Test B pre/postemergence surinam grass; type: in vivo, Brachiaria decumbens
Method in brief: as §1

pigweed = experiment: Test B pre/postemergence pigweed; type: in vivo, Amaranthus retroflexus
Method in brief: as §1

sugar beet = experiment: Test B pre/postemergence sugar beet; type: in vivo, Beta vulgaris
Method in brief: as §1

giant foxtail = experiment: Test B pre/postemergence giant foxtail; type: in vivo, Setaria faberii
Method in brief: as §1

bamyardgrass = experiment: Test B flood test barnyardgrass; type: in vivo, Echinochloa crus-galli
Method in brief: (§2)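 Read-out is a visual response score from 0 (no effect) to 10 (complete control), assigned by comparison with untreated controls. Treatment was applied at the 2-leaf stage, and plants stayed in the greenhouse for twelve to sixteen days before scoring.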

soybean = experiment: Test B pre/postemergence soybean; type: in vivo, Glycine max
Method in brief: as §1

purple nutsedge = experiment: Test B pre/postemergence purple nutsedge; type: in vivo, Cyperus rotundus; conditions: Postemergence
Method in brief: as §1

blackgrass = experiment: Test B pre/postemergence blackgrass; type: in vivo, Alopecurus myosuroides
Method in brief: as §1

morningglory = experiment: Test B pre/postemergence morningglory; type: in vivo, Ipomoea hederacea
Method in brief: as §1

smallflower flatsedge = experiment: Test B flood test smallflower flatsedge; type: in vivo, Cyperus difformis
Method in brief: as §2

corn = experiment: Test B pre/postemergence corn; type: in vivo, Zea mays
Method in brief: as §1

velvetleaf = experiment: Test B pre/postemergence velvetleaf; type: in vivo, Abutilon theophrasti
Method in brief: as §1

rape = experiment: Test B pre/postemergence rape; type: in vivo, Brassica napus
Method in brief: as §1

cocklebur = experiment: Test B pre/postemergence cocklebur; type: in vivo, Xanthium strumarium
Method in brief: as §1

[1] = Preemergence, Rate 62 g/ha, scale of 0 to 10 where 0 is no effect and 10 is complete control
[2] = Preemergence, Rate 250 g/ha, scale of 0 to 10 where 0 is no effect and 10 is complete control
[3] = Preemergence, Rate 500 g/ha, scale of 0 to 10 where 0 is no effect and 10 is complete control
[4] = Rate 62 g/ha, Postemergence, scale of 0 to 10 where 0 is no effect and 10 is complete control
[5] = Rate 125 g/ha, Postemergence, scale 0 to 10
[6] = Rate 125 g/ha, Preemergence, scale of 0 to 10 where 0 is no effect and 10 is complete control
[7] = Rate 500 g/ha, Postemergence, scale 0 to 10, 0 no effect, 10 complete control
[8] = Rate 62 g/ha, headed Pre-emergence (flood test species), scale 0 to 10 (0 no effect, 10 complete control)
[9] = Rate 125 g/ha, Pre-emergence, flood test species, scale 0 to 10 where 0 is no effect and 10 is complete control
[10] = Rate 250 g/ha, Pre-emergence, flood-test species, scale 0 to 10, 0 is no effect, 10 is complete control
[11] = Rate 500 g/ha, Pre-emergence, flood test species, scale 0 to 10 (0 no effect, 10 complete control)

Cc1ccccc1N(C(=O)n1oc(=O)n(-c2ccccc2C)c1=O)C(C)C [Compound 236]
Crabgrass plant response rating (crabgrass; [1]): 2
Crabgrass plant response rating (crabgrass; [2]): 5
Plant response rating, Crabgrass (crabgrass; [3]): 5
Crabgrass plant response rating (crabgrass; [4]): 0
Crabgrass plant response rating (crabgrass; [5]): 0
Crabgrass plant response rating (crabgrass; [6]): 3
Plant response rating (0 to 10; 0 is no effect, 10 is complete control), Crabgrass (crabgrass; Rate 250 g/ha, Postemergence): 0
Crabgrass plant response rating (crabgrass; [7]): 0
Wild oats plant response rating (wild oat; [1]): 0
Wild oats plant response rating (wild oat; [2]): 0
Plant response rating, Wild oats (wild oat; [3]): 2
Wild oats plant response rating (wild oat; [4]): 0
Wild oats plant response rating (wild oat; [5]): 0
Wild oats plant response rating (wild oat; [6]): 0
Plant response rating (0 to 10; 0 is no effect, 10 is complete control), Wild oats (wild oat; Rate 250 g/ha, Postemergence): 0
Wild oats plant response rating (wild oat; [7]): 0
B. signalgrass plant response rating (surinam grass; [1]): 0
B. signalgrass plant response rating (surinam grass; Preemergence, Rate 250 g/ha, scale 0 to 10, 0 is no effect, 10 is complete control): 0
Plant response rating, B. signalgrass (surinam grass; [3]): 3
B. signalgrass plant response rating (surinam grass; [4]): 0
B. signalgrass plant response rating (surinam grass; Rate 125 g/ha, Postemergence, scale 0 (no effect) to 10 (complete control)): 0
B. signalgrass plant response rating (surinam grass; [6]): 0
Plant response rating (0 to 10; 0 is no effect, 10 is complete control), B. signalgrass (surinam grass; Rate 250 g/ha, Postemergence): 0
B. signalgrass plant response rating (surinam grass; [7]): 0
Redroot pigweed plant response rating (pigweed; [1]): 0
Redroot pigweed plant response rating (pigweed; [2]): 0
Plant response rating, Redroot pigweed (pigweed; [3]): 0
Redroot pigweed plant response rating (pigweed; [4]): 0
Redroot pigweed plant response rating (pigweed; [5]): 0
Redroot pigweed plant response rating (pigweed; [6]): 0
Plant response rating (0 to 10; 0 is no effect, 10 is complete control), Redroot pigweed (pigweed; Rate 250 g/ha, Postemergence): 0
Redroot pigweed plant response rating (pigweed; [7]): 0
Sugarbeets plant response rating (sugar beet; [1]): 0
Sugarbeets plant response rating (sugar beet; [2]): 0
Plant response rating, Sugarbeets (sugar beet; [3]): 0
Sugarbeets plant response rating (sugar beet; [4]): 0
Sugarbeets plant response rating (sugar beet; [5]): 0
Sugarbeets plant response rating (sugar beet; [6]): 0
Plant response rating (0 to 10; 0 is no effect, 10 is complete control), Sugarbeets (sugar beet; Rate 250 g/ha, Postemergence): 0
Sugarbeets plant response rating (sugar beet; [7]): 0
Giant foxtail plant response rating (giant foxtail; [1]): 7
Giant foxtail plant response rating (giant foxtail; [2]): 9
Plant response rating, Giant foxtail (giant foxtail; [3]): 10
Giant foxtail plant response rating (giant foxtail; [4]): 0
Giant foxtail plant response rating (giant foxtail; [5]): 0
Giant foxtail plant response rating (giant foxtail; [6]): 7
Plant response rating (0 to 10; 0 is no effect, 10 is complete control), Giant foxtail (giant foxtail; Rate 250 g/ha, Postemergence): 0
Giant foxtail plant response rating (giant foxtail; [7]): 0
Barnyardgrass plant response rating (bamyardgrass; [8]): 0
Barnyardgrass plant response rating (bamyardgrass; [9]): 0
Barnyardgrass plant response rating (bamyardgrass; [10]): 0
Barnyardgrass plant response rating (bamyardgrass; [11]): 0
Soybean plant response rating (soybean; [1]): 0
Soybean plant response rating (soybean; [2]): 0
Plant response rating, Soybean (soybean; [3]): 0
Soybean plant response rating (soybean; [4]): 1
Soybean plant response rating (soybean; [5]): 1
Soybean plant response rating (soybean; [6]): 0
Plant response rating (0 to 10; 0 is no effect, 10 is complete control), Soybean (soybean; Rate 250 g/ha, Postemergence): 2
Soybean plant response rating (soybean; [7]): 3
Nutsedge plant response rating (purple nutsedge; Rate 62 g/ha, scale of 0 to 10 where 0 is no effect and 10 is complete control): 0
Nutsedge plant response rating (purple nutsedge; Rate 125 g/ha, scale 0 to 10): 0
Plant response rating (0 to 10; 0 is no effect, 10 is complete control), Nutsedge (purple nutsedge; Rate 250 g/ha): 0
Nutsedge plant response rating (purple nutsedge; Rate 500 g/ha, scale 0 to 10, 0 no effect, 10 complete control): 0
Blackgrass plant response rating (blackgrass; [1]): 0
Blackgrass plant response rating (blackgrass; [2]): 5
Plant response rating, Blackgrass (blackgrass; [3]): 5
Blackgrass plant response rating (blackgrass; [4]): 0
Blackgrass plant response rating (blackgrass; [5]): 0
Blackgrass plant response rating (blackgrass; [6]): 2
Plant response rating (0 to 10; 0 is no effect, 10 is complete control), Blackgrass (blackgrass; Rate 250 g/ha, Postemergence): 0
Blackgrass plant response rating (blackgrass; [7]): 0
Morningglory plant response rating (morningglory; [1]): 0
Morningglory plant response rating (morningglory; [2]): 0
Plant response rating, Morningglory (morningglory; [3]): 0
Morningglory plant response rating (morningglory; [4]): 4
Morningglory plant response rating (morningglory; [5]): 4
Morningglory plant response rating (morningglory; [6]): 0
Plant response rating (0 to 10; 0 is no effect, 10 is complete control), Morningglory (morningglory; Rate 250 g/ha, Postemergence): 5
Morningglory plant response rating (morningglory; [7]): 6
S. Flatsedge plant response rating (smallflower flatsedge; [8]): 0
S. Flatsedge plant response rating (smallflower flatsedge; [9]): 0
S. Flatsedge plant response rating (smallflower flatsedge; [10]): 0
S. Flatsedge plant response rating (smallflower flatsedge; [11]): 0
Corn plant response rating (corn; [1]): 0
Corn plant response rating (corn; [2]): 0
Plant response rating, Corn (corn; [3]): 0
Corn plant response rating (corn; [4]): 0
Corn plant response rating (corn; [5]): 0
Corn plant response rating (corn; [6]): 0
Plant response rating (0 to 10; 0 is no effect, 10 is complete control), Corn (corn; Rate 250 g/ha, Postemergence): 0
Corn plant response rating (corn; [7]): 0
Velvetleaf plant response rating (velvetleaf; [1]): 0
Velvetleaf plant response rating (velvetleaf; [2]): 0
Plant response rating, Velvetleaf (velvetleaf; [3]): 0
Velvetleaf plant response rating (velvetleaf; [4]): 0
Velvetleaf plant response rating (velvetleaf; [5]): 0
Velvetleaf plant response rating (velvetleaf; [6]): 0
Plant response rating (0 to 10; 0 is no effect, 10 is complete control), Velvetleaf (velvetleaf; Rate 250 g/ha, Postemergence): 1
Velvetleaf plant response rating (velvetleaf; [7]): 3
Rape plant response rating (rape; [1]): 0
Rape plant response rating (rape; [2]): 0
Plant response rating, Rape (rape; [3]): 0
Rape plant response rating (rape; [4]): 0
Rape plant response rating (rape; [5]): 0
Rape plant response rating (rape; [6]): 0
Plant response rating (0 to 10; 0 is no effect, 10 is complete control), Rape (rape; Rate 250 g/ha, Postemergence): 0
Rape plant response rating (rape; [7]): 0
Cocklebur plant response rating (cocklebur; [1]): 0
Cocklebur plant response rating (cocklebur; [2]): 0
Plant response rating, Cocklebur (cocklebur; [3]): 0
Cocklebur plant response rating (cocklebur; [4]): 0
Cocklebur plant response rating (cocklebur; [5]): 0
Cocklebur plant response rating (cocklebur; [6]): 0
Plant response rating (0 to 10; 0 is no effect, 10 is complete control), Cocklebur (cocklebur; Rate 250 g/ha, Postemergence): 0
Cocklebur plant response rating (cocklebur; [7]): 0
